The results in this text go back to ChEMBL document CHEMBL6103623, “Phenolics and Phenolic Glycosides from Wrightia pubescens and Their Hepatoprotective Activities” (J Nat Prod, 2025).

The test system of series [1] is HepG2. Put plainly: Cytotoxicity against human HepG2 cells assessed as reduction in cell viability at 100 uM incubated for 48 hrs by MTT assay. The class given is toxicity, cell-based. As to conditions: hepg2, 48 h. A general note: Tetrazolium dyes change colour on reduction, which living cells bring about.
Series [2] concerns HepG2. Kind of series: Hepatoprotective activity against APAP-induced cell injury in human HepG2 cells assessed as increase in survival rate preincubated for 24 hrs followed by APAP addition and measured after 24 hrs by MTT assay. It is filed as functional, cell-based. The note with it: dose 6.25-25 µM, time 48.0 hrs.
For series [3], the system named is HepG2. Put plainly: Hepatoprotective activity against APAP-induced cell injury in human HepG2 cells assessed as reduction in ALT level at 6.25 to 25 uM preincubated for 24 hrs followed by APAP addition and measured after 24 hrs. The class given is functional, cell-based. The note with it: dose 6.25-25 µM, time 48.0 hrs.
Series [4] relates to HepG2. Kind of series: Hepatoprotective activity against APAP-induced cell injury in human HepG2 cells assessed as reduction in AST level at 6.25 to 25 uM preincubated for 24 hrs followed by APAP addition and measured after 24 hrs. The class given is functional, cell-based. The note with it: dose 6.25-25 µM, time 48.0 hrs.
The subject of series [5] is HepG2. Kind of series: Hepatoprotective activity in human HepG2 cells assessed as restoration of APAP-induced inhibition of Bcl-2 expression preincubated for 24 hrs followed by APAP addition and measured after 24 hrs by Western blot analysis. The class given is functional, cell-based. As to conditions: dose 6.25-25 µM, time 48.0 hrs. (In general: A western blot detects proteins with antibodies after separation by electrophoresis.)

Series [6] concerns HepG2. Kind of series: Hepatoprotective activity in human HepG2 cells assessed as inhibition of APAP-induced increase in Bax expression preincubated for 24 hrs followed by APAP addition and measured after 24 hrs by Western blot analysis. It is filed as functional, cell-based. As to conditions: dose 6.25-25 µM, time 48.0 hrs.
Series [7] relates to HepG2. Kind of series: Hepatoprotective activity against APAP-induced human HepG2 cell apoptosis assessed as viable cells at 25 uM incubated for 24 hrs in presence of APAP by Annexin V-FITC/PI staining based flow cytometry (Rvb=62.69%). It is filed as functional. The note with it: read-out: Activity. In general terms: Flow cytometry measures light scatter and fluorescence of single cells or particles in a stream.

Series [8] deals with HepG2. Put plainly: Hepatoprotective activity against APAP-induced human HepG2 cell apoptosis assessed as early apoptotic cells at 25 uM incubated for 24 hrs in presence of APAP by Annexin V-FITC/PI staining based flow cytometry (reference value: 25.81%). It is filed as functional.
Series [9] has as its system HepG2. Put plainly: Hepatoprotective activity against APAP-induced human HepG2 cell apoptosis assessed as late apoptotic cells at 25 uM incubated for 24 hrs in presence of APAP by Annexin V-FITC/PI staining based flow cytometry (reference value: 11.01%). The class given is functional.
The test system of series [10] is HepG2. Kind of series: Hepatoprotective activity against APAP-induced human HepG2 cell apoptosis assessed as necrotic cells at 25 uM incubated for 24 hrs in presence of APAP by Annexin V-FITC/PI staining based flow cytometry (reference value: 0.49%). It is filed as functional.
Series [11] concerns HepG2. Kind of series: Hepatoprotective activity against APAP-induced cell injury in human HepG2 cells assessed as increase in GSH-Px activity at 6.25 to 25 uM preincubated for 24 hrs followed by APAP addition and measured after 24 hrs. The class given is functional, cell-based. As to conditions: dose 6.25-25 µM, time 48.0 hrs.
Series [12] deals with HepG2. Put plainly: Hepatoprotective activity against APAP-induced cell injury in human HepG2 cells assessed as increase in Nrf2 expression at 6.25 to 25 uM preincubated for 24 hrs followed by APAP addition and measured after 24 hrs by Western blot analysis. It is filed as functional, cell-based. The note with it: dose 6.25-25 µM, time 48.0 hrs.
The test system of series [13] is HepG2. Put plainly: Hepatoprotective activity against APAP-induced cell injury in human HepG2 cells assessed as increase in HO-1 expression at 6.25 to 25 uM preincubated for 24 hrs followed by APAP addition and measured after 24 hrs by Western blot analysis. It is filed as functional, cell-based. The note with it: dose 6.25-25 µM, time 48.0 hrs.
Series [14] concerns HepG2. Kind of series: Hepatoprotective activity against APAP-induced cell injury in human HepG2 cells assessed as increase in GPX4 expression at 6.25 to 25 uM preincubated for 24 hrs followed by APAP addition and measured after 24 hrs by Western blot analysis. It is filed as functional, cell-based. The note with it: dose 6.25-25 µM, time 48.0 hrs.
The subject of series [15] is HepG2. Kind of series: Hepatoprotective activity in human HepG2 cells assessed as reduction in APAP-induced increased in ROS level at 25 uM measured after 24 hrs in presence of APAP by DCF staining based flow cytometry. The class given is functional, cell-based.
The test system of series [16] is HepG2. Put plainly: Hepatoprotective activity against APAP-induced cell injury in human HepG2 cells assessed as reduction in ALT level at 10 uM preincubated for 24 hrs followed by APAP addition and measured after 24 hrs. The class given is functional, cell-based. The note with it: time 48.0 hrs.
Series [17] deals with HepG2. Put plainly: Hepatoprotective activity against APAP-induced cell injury in human HepG2 cells assessed as reduction in AST level at 10 uM preincubated for 24 hrs followed by APAP addition and measured after 24 hrs. It is filed as functional, cell-based. As to conditions: time 48.0 hrs.

Calls of active or inactive are those of the source. The rule behind the calls is not given here.

Take `COc1cc(O[C@@H]2O[C@H](COC(=O)c3ccc(O)c(OC)c3)[C@@H](O[C@@H]3O[C@H](CO)[C@@H](O)[C@H](O)[C@H]3O)[C@H](O)[C@H]2O)ccc1O`: the Activity result with HepG2 [1] was “Non-toxic”; in the series on HepG2 [2], “Dose-dependent-effect”; in the series on HepG2 [3] it was “Active; Significant Effect Observed”; in the series with HepG2 [4], “Active; Significant Effect Observed”; with HepG2 [5], “Dose-dependent-effect; Significant Effect Observed”; in the series on HepG2 [8], 20.51%. The values for the Activity in the series with HepG2 [9] and in the series on HepG2 [10] were 9.43% and 0.9%, respectively. The inhibition entry with HepG2 [6] was “Dose-dependent-effect; Significant Effect Observed”. Moreover, the viability at 25 µM with HepG2 [7] came out at 69.2%. Also, the outcome in the series with HepG2 [11], with HepG2 [12], in the series with HepG2 [13], with HepG2 [14] and in the series on HepG2 [15] was Active.
On to `COc1cc(O[C@@H]2O[C@H](CO)[C@@H](O)[C@H](O)[C@H]2O[C@@H]2OC[C@](O)(COC(=O)c3ccc(O)c(OC)c3)[C@H]2O)ccc1O`, for which the Activity entry was “Non-toxic” in the series on HepG2 [1], “Dose-dependent-effect” in the series with HepG2 [2], “Active; Significant Effect Observed” in the series with HepG2 [3] and “Active; Significant Effect Observed” in the series with HepG2 [4].
For the compound `COc1cc(O[C@@H]2O[C@H](COC(=O)c3cc(OC)c(O)c(OC)c3)[C@@H](O[C@@H]3O[C@H](CO)[C@@H](O)[C@H](O)[C@H]3O)[C@H](O)[C@H]2O)ccc1O`, the Activity entry in the series on HepG2 [1] was “Non-toxic”; with HepG2 [2] it was “Dose-dependent-effect”; in the series on HepG2 [3], “Active; Significant Effect Observed”; in the series with HepG2 [4], “Active; Significant Effect Observed”.
As for `CCCCO[C@@H]1OC[C@](O)(COC(=O)c2ccc(O)c(OC)c2)[C@H]1O`, the Activity entry is “Non-toxic” in the series with HepG2 [1], “Dose-dependent-effect” with HepG2 [2], “Active; Significant Effect Observed” with HepG2 [3] and “Active; Significant Effect Observed” in the series with HepG2 [4].
Take `COc1cc(C(=O)OC[C@H]2O[C@@H](Oc3cc(OC)c(OC)c(OC)c3)[C@H](O)[C@@H](O)[C@@H]2O)ccc1O`: the Activity entry in the series with HepG2 [1] was “Non-toxic”; in the series on HepG2 [2] it was “Dose-dependent-effect”; in the series on HepG2 [3], “Active; Significant Effect Observed”; in the series on HepG2 [4] it was “Active; Significant Effect Observed”.
As for `COc1cc(CO)ccc1O[C@@H]1O[C@H](COC(=O)c2cc(OC)c(O)c(OC)c2)[C@@H](O[C@@H]2O[C@H](CO)[C@@H](O)[C@H](O)[C@H]2O)[C@H](O)[C@H]1O`, the Activity result is “Non-toxic” with HepG2 [1], “Dose-dependent-effect” in the series with HepG2 [2], “Active; Significant Effect Observed” in the series on HepG2 [3] and “Active; Significant Effect Observed” in the series with HepG2 [4].
In the case of `COc1cc([C@@H]2Oc3cc([C@H]4Oc5cc(O)cc(O)c5C(=O)[C@@H]4O)ccc3O[C@H]2CO)ccc1O`, the outcome in the series with HepG2 [16] and in the series on HepG2 [17] was Active.
Regarding `CCCCO[C@H]1OC[C@](O)(COC(=O)c2ccc(O)c(OC)c2)[C@H]1O`, the Activity entry with HepG2 [1] was “Non-toxic”; in the series on HepG2 [2], “Dose-dependent-effect”; with HepG2 [3], “Active; Significant Effect Observed”; in the series on HepG2 [4], “Active; Significant Effect Observed”.
